Data: patent US11326207B2, “Sequencing using non-natural nucleotides” (Ultima Genomics, Inc., priority 2017, dated 2022)
Read-outs that look alike come from different tables or passages of the source. Each block holds one compound with its values, some of them ahead of it.

Assays:
[1] = test system: Bst 2.0 DNA polymerase; assay: Homopolymer assays of nucleotide analogs (Example 10); assay type: biochemical
Procedure: A homopolymer assay was performed to investigate the effectiveness of E-dCTP and P-dUTP as nucleotide analogs of dCTP. 50 μl solutions containing a template nucleic acid molecule and primer and Bst 2.0 DNA polymerase are placed in a microplate reader and the fluorescence of the solution is measured in kinetic mode. A fluorescein attached to an oligonucleotide (indicated with a * in FIG. 7) was quenched in the substrate due to the proximity of complementary G bases. Addition of dCTP and/or dCTP analogs causes extension of the 3′ end of the primer, formation of double-stranded DNA, and unquenching of the fluorescein. The fluorescence increases with the addition of multiple nucleotides.
Additional homopolymer assays were performed according to the procedure outlined in Example 8 using different nucleotides and nucleotide analogs.
To test for dUTP or TTP incorporation, oligo 332 was used as a template and oligo 221L was used as a primer. To test for dCTP incorporation, oligo 333 was used as a template and oligo 221L was used as a primer. To test for dGTP incorporation, oligo 334 was used as a template and oligo 221L was used as a primer. To test for dATP incorporation, hairpin oligo 221 was used as both a primer and template.

[2] = test system: Bst DNA polymerase v.2.0; assay: Flow cytometry assay: tolerance of dye-labeled dUTP* compared to dUTP analogs (Example 7); assay type: biochemical; settings: for Tolerance: tolerance of dUTP* compared to the named dUTP^0
Procedure: A solution of biotinylated template (2 microliters (μL) of 100 μM) and dye-labeled primer (4 μL of 100 μM) were combined in annealing buffer (40 μL; Tris (10 millimolar (mM)), EDTA (1 mM), NaCl (100 mM)). The resulting solution was heated to 95° C. and allowed to slowly cool to room temperature. A portion of this solution (8 μL) was mixed with streptavidin-labeled magnetic beads (4 μL of Invitrogen Dynabeads™ MyOne™ Streptavidin C1, 10 milligrams/milliliter (mg/mL); washed and eluant removed) and 2× bead wash buffer (8 μL; 10 mM Tris, pH 7.5, 1 mM EDTA, 2 M NaCl, 0.01% Triton X-100). After washing with TET solution (10 mM Tris, 1 mM EDTA, 0.05% Triton X-100) the beads were treated with Bst DNA polymerase v.2.0 (8 μL of 8 units (U)/μL; New England Biolabs) for five minutes. The excess enzyme was removed by washing with TET and the beads were suspended in 1×DNA polymerase buffer solution (20 mM Tris, pH 8, 10 mM NaCl, 2 mM MgCl2, 0.01% Triton X-100). The sequence of the biotinylated template was /52 Bio//iSp18/[…] […] (SEQ ID NO: 12), where “5” is indicative of the 5′-end of the oligo, 2-Bio indicates dual biotin, and iSP18 indicates a PEG spacer. […] […] (SEQ ID NO: 13), where “5” indicates the 5′-end of the oligo and JOE indicates a fluorescent dye attached to the oligo.
Next, a portion of the suspended magnetic beads (10 μL) were removed and placed in a PCR tube. A solution of nucleotides (10 μL) was added to the tube and the tube incubated for 40 seconds (s) at 50° C. The enzyme reaction was stopped with the addition of 5 μL of 50 mM EDTA. The beads were washed with 2×100 μL TET and resuspended in 20 μL TET. A portion of the bead solution (1 μL) was added to TE (200 μL) and the beads examined for red fluorescence on a flow cytometer (BD Accuri™, APC channel). The eluant of the remaining beads was removed and 40 μL of 95:5 formamide:10 mM EDTA was added to the beads. A portion of the formamide solution (1 μL) was added to 40 μL 95:5 formamide EDTA. The solutions were examined by capillary electrophoresis (CE) on an ABI 3730 instrument and the peaks identified and quantitated by peak height. The experimental protocol is summarized schematically in FIG. 2.
Tolerance was measured at two molar fractions, […] and 0.05, for each of the four dUTP analogs.

[3] = test system: hairpin oligo; assay: Kinetic assay using hairpin oligos (Example 7); assay type: biochemical
Procedure: A kinetic assay using hairpin oligos was also performed to determine the rate of incorporate of an unnatural nucleotide and a natural nucleotide following the unnatural nucleotide. […] Incorporation of a T or U analog unquenched a fluorescein in the hairpin oligo. Following incorporation of the T or U analog, a mixture of C and A was added, which further unquenched the dye.

[4] = test system: DNA polymerase; settings: for peak height (red fluorescence on the gel): dUTP* only (Fr = 1.0) or dUTP*/named dUTP^0
Procedure: A gel assay was also performed to examine context-dependent incorporation. […] The primers had different lengths poly-T tails to enable separation on a polyacrylamide gel. […] Excess nucleotides and nucleotide analogs were washed away and the sample was loaded onto a gel.
The red fluorescence on the gel was analyzed with ImageJ. The peak heights for the extension reactions for each primer with Fr=1.0 was measured. […] The ratios of the peak heights for each pair were calculated (“norm.”). […] The metric in this experiment was context, as defined as: C=(Maximum signal−minimum signal)/(average signal).

[5] = Natural Nucleotide C (dCTP = 1), template oligo 333, primer 221L
[6] = Natural Nucleotide T (TTP = 1), template oligo 332, primer 221L
[7] = Natural Nucleotide A (dATP = 1), hairpin oligo 221
[8] = Natural Nucleotide G (dGTP = 1), template oligo 334, primer 221L

- Relative Rate in Homopolymer Assay [1, 5]: >1
Compound: Nc1nc(=O)n([C@H]2C[C@H](O)[C@@H](COP(=O)(O)OP(=O)(O)OP(=O)(O)O)O2)cc1Br [5-Bromo-dCTP, 5-bromo-2′-deoxycytidine 5′triphosphate]

- Relative Rate in Homopolymer Assay [1, 6]: >1
Compound: O=c1[nH]c(=O)n([C@H]2C[C@H](O)[C@@H](COP(=O)(O)OP(=O)(O)OP(=O)(O)O)O2)cc1Br [5-Bromo-dUTP, 5-bromo-2′-deoxyuridine 5′triphosphate]

- Relative Rate in Homopolymer Assay [1, 6]: <1
Compound: O=c1[nH]c(=O)n([C@H]2C[C@H](O)[C@@H](COP(=O)(O)OP(=O)(O)OP(=O)(O)O)O2)cc1F [5-Fluoro-dUTP, 5-fluoro-2′-deoxyuridine 5′triphosphate]

- Relative Rate in Homopolymer Assay [1, 5]: <<1
Compound: Nc1nc(=O)n([C@H]2C[C@H](O)[C@@H](COP(=O)(O)OP(=O)(O)OP(=O)(O)O)O2)cc1O [5-Hydroxy-dCTP, 5-hydroxy-2′-deoxycytidine 5′triphosphate]

- Relative Rate in Homopolymer Assay [1, 5]: <<1
Compound: Nc1nc(=O)n([C@H]2C[C@H](O)[C@@H](COP(=O)(O)OP(=O)(O)OP(=O)(O)O)O2)cc1CO [5-Hydroxymethyl-dCTP, 5-ydroxymethyl-2′-deoxycytidine 5′triphosphate]

- Relative Rate in Homopolymer Assay [1, 6]: >1
Compound: O=c1[nH]c(=O)n([C@H]2C[C@H](O)[C@@H](COP(=O)(O)OP(=O)(O)OP(=O)(O)O)O2)cc1I [5-Iodo-dUTP, 5-iodo-2′-deoxyuridine 5′triphosphate]

- Relative Rate in Homopolymer Assay [1, 5]: >1
Compound: Cc1cn([C@H]2C[C@H](O)[C@@H](COP(=O)(O)OP(=O)(O)OP(=O)(O)O)O2)c(=O)nc1N [5-Methyl-dCTP, 5-methyl-2′-deoxycytidine 5′triphosphate]

- Relative Rate in Homopolymer Assay [1, 6]: <<1
Compound: C#CCNc1cn([C@H]2C[C@H](O)[C@@H](COP(=O)(O)OP(=O)(O)OP(=O)(O)O)O2)c(=O)[nH]c1=O [5-Propargylamino-dUTP, 5-proparylamino-2′-deoxyuridine 5′triphosphate]

- Relative Rate in Homopolymer Assay [1, 5]: <<1
Compound: Nc1nc(=O)n([C@H]2C[C@H](O)[C@@H](COP(=O)(O)OP(=O)(O)OP(=O)(O)O)O2)cc1C=O [5-formyl-dCTP, 5-formyl-2′-deoxycytidine 5′triphosphate]

- Relative Rate in Homopolymer Assay [1, 7]: >1
Compound: Nc1ncnc2c1c(I)cn2[C@H]1C[C@H](O)[C@@H](COP(=O)(O)OP(=O)(O)OP(=O)(O)O)O1 [7-Iodo-7-deaza-dATP, 7-deaza-7-iodo-2′-deoxyadenosine-5′-triphosphate]

- Relative Rate in Homopolymer Assay [1, 7]: <1
Compound: Nc1ncnc2c1ccn2[C@H]1C[C@H](O)[C@@H](COP(=O)(O)OP(=O)(O)OP(=O)(O)O)O1 [7-deaza-dATP, 7-deaza-2′-deoxyadenosine-5′-triphosphate]

- Relative Rate in Homopolymer Assay [1, 8]: <1
Compound: Nc1nc2c(ccn2[C@H]2C[C@H](O)[C@@H](COP(=O)(O)OP(=O)(O)OP(=O)(O)O)O2)c(=O)[nH]1 [7-deaza-dGTP, 7-deaza-2′-deoxyguanosine-5′-triphosphate]

- Relative Rate in Homopolymer Assay [1, 7]: >1
Compound: Nc1ncnc2c1nc(Br)n2[C@H]1C[C@H](O)[C@@H](COP(=O)(O)OP(=O)(O)OP(=O)(O)O)O1 [Bromo-dATP, bromo-deoxyadenosine triphosphate]

Compound: CC#Cc1cn([C@H]2C[C@H](O)[C@@H](COP(=O)(O)OP(=O)(O)OP(=O)(O)O)O2)c(=O)[nH]c1=O [P-dUTP, 5-propynyl-2′-deoxyuridine 5′triphosphate]
- performance as a substrate compared with TTP (in words) ([2]; from tolerance for the labeled nucleotide at both molar fractions): outperforms TTP as a substrate
- Apparent fraction ([2]; molar fraction dUTP* 0.05): 0.032
- Red signal ([2]; molar fraction dUTP* 0.05, rest the named dUTP^0): 1,600
- Apparent fraction ([2]; molar fraction dUTP* 0.5): 0.32
- Red signal ([2]; molar fraction dUTP* 0.5, rest the named dUTP^0): 16,000
- Tolerance ([2]; molar fraction dUTP* 0.05): 0.6
- Tolerance ([2]; molar fraction dUTP* 0.5): 0.6
- incorporation of dCTP and dATP after the dUTP analog ([3]; mixture of C and A added after T or U analog): rapid
- initial incorporation of dUTP analog ([3]; unquenching of fluorescein in hairpin oligo): rapid
- Relative Rate in Homopolymer Assay [1, 6]: >1
- Norm. (ratio of peak height dUTP*/dUTP^0 to Fr=1.0) ([4]; Peak 1): 1.3
- peak height (red fluorescence on the gel) ([4]; Peak 1 (primer)): 55
- Norm. (ratio of peak height dUTP*/dUTP^0 to Fr=1.0) ([4]; Peak 2): 1.4
- peak height (red fluorescence on the gel) ([4]; Peak 2 (primer)): 54
- Norm. (ratio of peak height dUTP*/dUTP^0 to Fr=1.0) ([4]; Peak 3): 1.0
- peak height (red fluorescence on the gel) ([4]; Peak 3 (primer)): 27
- Norm. (ratio of peak height dUTP*/dUTP^0 to Fr=1.0) ([4]; Peak 4): 1.1
- peak height (red fluorescence on the gel) ([4]; Peak 4 (primer)): 36
- Norm. (ratio of peak height dUTP*/dUTP^0 to Fr=1.0) ([4]; Peak 5): 1.4
- peak height (red fluorescence on the gel) ([4]; Peak 5 (primer)): 32
- context C=(Maximum signal−minimum signal)/(average signal) ([4]; five primers, gel assay with dUTP*): 0.32

- Relative Rate in Homopolymer Assay [1, 7]: 1
Compound: Nc1ncnc2c1ncn2[C@H]1C[C@H](O)[C@@H](COP(=O)(O)OP(=O)(O)OP(=O)(O)O)O1 [dATP, deoxyadenosine triphosphate, reference compound]

- Relative Rate in Homopolymer Assay [1, 8]: 1
Compound: Nc1nc2c(ncn2[C@H]2C[C@H](O)[C@@H](COP(=O)(O)OP(=O)(O)OP(=O)(O)O)O2)c(=O)[nH]1 [dGTP, deoxyguanosine triphosphate, reference compound]

- Relative Rate in Homopolymer Assay [1, 8]: >1
Compound: iodo-2′-deoxyguanosine-5′-triphosphate [Iodo-dGTP]
